# Assay results published in US11938138B2, “Methods for improved treatment of cancer” (Washington University, priority 2020, dated 2024).
# Entries after “also recorded” stand apart in the source; their conditions may differ.
# Experiments:
# [1] = system: Hematologic and solid malignancies; 17 with NMC; settings: cited from earlier work
# K562 cells [2] = assay: Cell cycle perturbation of K562 cells (DNA content, CD24, annexin V/PI); assay type: cell-based, human; settings: five days, one-way ANOVA p<0.01 (FIG. 14H)
# Protocol: (§1) CD24 surface protein was quantified using monoclonal human antibodies. Cells were spun down at 300 g for 3 minutes and washed twice with 1 mL of Cell Staining Buffer. The cell pellet was then resuspended in 50 μl of Cell Staining Buffer containing 0.2 μg of either CD24-APC or CD24-BV421. The tube was rotated at 4° C. in the dark for 30 minutes. After, cells were washed twice (as before) and finally resuspended in 200 μl of Cell Staining Buffer. Cells were excited with 450/45 and 660/20 lasers (wavelength/filter bandwidth, both in nm). For concomitant analysis of DNA content, we used CD24-APC. Cells were incubated with 10 μg/ml Hoechst 33342 in 5 mL of growth medium for 30 minutes prior to the staining protocol. For simultaneous assessment of apoptosis, cells were stained with CD24-BV421. After the final wash, instead of resuspending in 200 μl of Cell Staining Buffer, cells were washed twice with Annexin V Staining Buffer. Cells were then incubated in 50 μl Annexin V Staining Buffer containing 0.2 μg Annexin V-FITC and 100 μg/ml propidium iodide (PI). The reaction was incubated for 15 minutes at room temperature in the dark. Afterward, we added 150 μl of Annexin V Staining Buffer and proceeded to flow cytometry. All samples were measured on a Beckman-Coulter CytoFLEX S flow cytometer. Cells were excited with 450/45, 525/40, and 610/20 lasers. We collected 10,000 events per sample. The resulting data were processed with FlowJo Software for Mac Version 10.
# We perturbed the cell cycle with lovastatin and nocodazole, two drugs classically used to synchronize cells in culture (Jackman and O'Connor, 2001), as well as the cyclin-dependent kinase inhibitors CVT-313 (Brooks et al., 1997) and RO-3306 (Vassilev et al., 2006). All drugs were dissolved in DMSO except nocodazole, which was dissolved in ethanol. […] Media was refreshed every 48 hours. After 36 hours of treatment, we stained for CD24 levels and nuclear DNA content. We gated for live, single cells using the forward scatter (FSC) and side scatter channels (SSC). Univariate cell cycle analysis was performed with FlowJo. We confirmed that all drugs perturbed cell cycle by altering the proportions of cells in either G1 or G2/M phase (FIG. 14G). […] Cultures remained under drug treatment until five days had elapsed, at which point we measured CD24 levels and stained for apoptosis (FIG. 14H). As before, we set gates to exclude debris to quantitate annexin V and PI, and measured CD24 in live cells gated on FSC and SSC. The G2 inhibitors, in particular, had very few cells in the FSC/SSC gate (typically below 5%).
# For the analysis of annexin V levels in either JQ1- or DMSO-treated CD24^high and CD24^low cells, we used a three-way ANOVA with treatment, cell state, and day as independent variables. […] Multiple hypothesis correction was performed using Tukey's honestly significant difference. For the cell cycle inhibitor experiment, data were analyzed using a one-way ANOVA with Dunnett's post hoc test using either DMSO or EtOH (for RO-3306) as controls.
# K562 cells [3] = assay: JQ1 treatment of K562 cells, CD24 surface staining by flow cytometry; assay type: cell-based, human
# Protocol: HCT-116, N2a, HEK293T, and HepG2 cells were cultured in Dulbecco's Modified Eagle Medium (DMEM) supplemented with 10% fetal bovine serum (FBS) and 1% of either penicillin-streptomycin or antibiotic-antimycotic. K562 (unless otherwise indicated) and OCM-1A cells were grown under the same conditions as described above, replacing DMEM with RPMI 1640 Medium. Cells were grown at 37° C. with 5% carbon dioxide (CO2). Media was replenished every 2 days. HepG2 cells were a gift from the Genome Engineering iPSC Center (GEiC) at Washington University in St. Louis School of Medicine. OCM-1A cells were a gift from Dr. Michael Onken. For the CD24^high/CD24^low cell state analyses, K562 cells were grown in IMDM containing 10% v/v FBS and 1% penicillin-streptomycin at 37° C. with 5% CO2. Frozen aliquots were thawed and passaged every 48 hours until they reached a maximum concentration of 800,000 cells/ml. For experiments, cells were seeded at mid-log phase concentrations, around 400,000 cells/ml. At this point, ratio of CD24^high/CD24^low cells was approximately 1:1, as determined by flow cytometry.
# CD24 surface protein was quantified using monoclonal human antibodies. Cells were spun down at 300 g for 3 minutes and washed twice with 1 mL of Cell Staining Buffer. […] All samples were measured on a Beckman-Coulter CytoFLEX S flow cytometer. […]
# [4] = system: MNNG/HOS osteosarcoma cells; settings: as single agent; cited from earlier work
# K562 cells [5] = assay: Imatinib treatment of K562 cells after JQ1 pretreatment (CD24, annexin V/PI staining); assay type: cell-based, human
# Protocol: as §1, with “Cells were then incubated in 50 μl Annexin V Staining Buffer containing 0.2 μg Annexin V-FITC and 100 μg/ml propidium iodide (PI). The reaction was incubated for 15 minutes at room temperature in the dark. Afterward, we added 150 μl of Annexin V Staining Buffer and proceeded to flow cytometry.” left out, “Cells were excited with 450/45, 525/40, and 610/20 lasers. We collected 10,000 events per sample. The resulting data were processed with FlowJo Software for Mac Version 10.” left out
# For the analysis of annexin V levels in either JQ1- or DMSO-treated CD24^high and CD24^low cells, we used a three-way ANOVA with treatment, cell state, and day as independent variables. […] For the cell cycle inhibitor experiment, data were analyzed using a one-way ANOVA with Dunnett's post hoc test using either DMSO or EtOH (for RO-3306) as controls.
# MYC and CD24 mRNA = assay: qRT-PCR for MYC and CD24 expression in K562 cells treated with JQ1; assay type: cell-based, human; settings: K562, 250 nM JQ1, first 24 hours (FIG. 14C)
# Protocol: Cells were pelleted, resuspended in 300 μl of RNA CellProtect, and stored at −80° C. When we were ready to extract RNA, we thawed cells, prepared samples using QIAGEN RNEasy Plus Mini Kit, and quantitated with the Qubit RNA High Sensitivity kit. We reverse transcribed 500 ng of RNA with the SuperScript VILO cDNA Synthesis Kit in a 20 μl reaction, with the following thermocycling parameters: 25° C. for 10 minutes; 42° C. for 2 hours; 85° C. for 5 minutes. We then performed PCR with 2 μl of the RT product as template, 1 μl each of forward and reverse primer (10 μM), 6 μl ddH2O, and 10 μl PowerUp SYBR Green Master Mix. We ran the PCR on an ABI QuantStudio 3 with the following settings: 2 minutes at 50° C., then 2 minutes at 95° C. (hot start); 45 cycles of 95° C. for 15 s followed by 60° C. for 1 minute. We generated melt curves after each PCR and all samples yielded a single peak. Gene-specific primers were obtained from PrimerBank (Wang et al., 2012b). Data were normalized to the levels of […].
# K562 cells [6] = settings: Litzenburger et al., 2017; cited from earlier work
smiles,measurement,setting,value
CCNC(=O)C[C@@H]1N=C(c2ccc(Cl)cc2)c2cc(OC)ccc2-n2c(C)nnc21 [GSK525762],Responses observed: PR in NMC patients,[1]; 17 with NMC,2
same,Responses observed: SD in NMC patients,[1]; 17 with NMC,4
same,RP2D,"[1]; daily, 70 patients",80 mg
Cc1sc2c(c1C)C(c1ccc(Cl)cc1)=N[C@@H](CC(=O)OC(C)(C)C)c1nnc(C)n1-2 [JQ1],reduction in CD24high cells compared with cell cycle inhibitors,K562 cells [2]; 250 nM JQ1,greatest reduction
same,"apoptosis compared with lovastatin, its closest competitor",K562 cells [2]; annexin V/PI,significantly less apoptosis
same,time course of conversion to CD24low state,"K562 cells [3]; K562, 250 nM JQ1, 7-day time course (FIG. 6D), rapid over first two days, stable at one week",plateaus at day four; also recorded: plateaued by day 4
same,CD24low cells in the population after JQ1 exposure,"K562 cells [3]; K562, 250 nM JQ1, 96 h (FIG. 6C), start equal proportions CD24high/CD24low",> 95%
same,tumor volume and weight,[4],had no effect on either
same,sensitivity of K562 cells to imatinib,"K562 cells [5]; BET inhibitor pretreatment, then imatinib 1 μM",sensitizes K562 cells to imatinib
same,fraction of CD24high cells after pretreatment (mean),"K562 cells [5]; K562, 250 nM JQ1 for five days, DMSO group 54%",17%
same,time of JQ1 exposure within which MYC mRNA levels fell,MYC and CD24 mRNA,≤ 3 h
Cc1ccc(NC(=O)c2ccc(CN3CCN(C)CC3)cc2)cc1Nc1nccc(-c2cccnc2)n1 [imatinib],apoptosis of CD24low versus CD24high K562 cells when exposed to imatinib,K562 cells [6],more apoptosis
